# Settings: buffer; pH 7.4; 200.0 µM
row,SMILES,solubility kinetic
1,COc1ccc(Cl)cc1C(=O)Nc1cccnc1Cl,< 0.3 µg/mL
2,CCCCCCCOc1ccc(C(=O)Nc2cccnc2)cc1,< 0.3 µg/mL
3,Cn1c(Oc2ccc(F)cc2F)c(C=O)c2ccccc21,16.6 µg/mL
4,Cc1cccc(CC(=O)NC2CCCCCC2)c1,30.5 µg/mL
5,Cc1ccccc1NC(=O)c1cccc(C(=O)Nc2ccccc2C)n1,0.3 µg/mL
6,CC(C)C1Cc2ccccc2-c2[nH]c(=S)[nH]c(=O)c21 (stereo not drawn),27 µg/mL
7,COc1ccccc1OCC(O)COC(N)=O (stereo not drawn),29.9 µg/mL
8,O=C(CN1CCCCCC1)Nc1ccc(Br)cc1[N+](=O)[O-],0.4 µg/mL
9,COc1ccc2ccccc2c1CNCCc1ccccc1.Cl,42 µg/mL
10,O=[N+]([O-])c1cc(C(F)(F)F)ccc1NCC1CCCO1 (stereo not drawn),0.6 µg/mL
11,Cl.c1coc(C2=NCCc3ccccc32)c1,27.9 µg/mL
12,CCOC(=O)Cc1ccc(NC(=O)c2ccc([N+](=O)[O-])cc2)cc1,1 µg/mL
13,Cc1c(C(=O)O)c(C(=O)O)nc2ccc(N3CCOCC3)cc12,> 47.4 µg/mL
14,COc1ccc(C(=O)c2sc(Nc3ccccc3)nc2N)cc1OC,0.6 µg/mL
15,COc1cccc(NC(=O)c2ccccc2Oc2ccccc2)c1,6.4 µg/mL
16,Cc1ccc(NC(=O)CCC(=O)c2cccs2)cc1F,4.3 µg/mL
17,CS(=O)(=O)N(CC(=O)N1CCOCC1)c1ccccc1Br,> 56.6 µg/mL
18,CN(Cc1ccccc1)c1ccc(N2C(=O)CCC2=O)cc1[N+](=O)[O-],38.7 µg/mL
19,O=S(=O)(NC1CCCCC1)c1cccc2nsnc12,31.6 µg/mL
20,O=C(CC(=O)c1ccccc1)Nc1ccccc1C(F)(F)F,43.7 µg/mL
21,COc1cccc(NC(=O)c2ccccc2-c2ccccc2C(=O)O)c1,51.9 µg/mL
22,Cc1cc(C)cc(NS(=O)(=O)c2ccc(F)cc2)c1,> 41.9 µg/mL
23,CCc1ccc(NC(=O)Nc2ccc3c(c2)CCC3)cc1,< 0.3 µg/mL
24,O=C(CCc1nc(-c2ccccc2Cl)no1)Nc1cccnc1,49.3 µg/mL
25,Cc1ccnc(NC(=O)Cc2ccc(-c3ccccc3)cc2)c1,4.3 µg/mL

row,SMILES,solubility kinetic
1,COCc1cc(C)nc(SCc2ccccc2)c1C#N,3.4 µg/mL
2,Cc1ccc2cccc(SCC(=O)Nc3ccc(F)cc3)c2n1,< 0.3 µg/mL
3,CCOC(=O)c1ccc(NC(=O)c2cc(F)c(F)cc2Cl)cc1,< 0.7 µg/mL
4,Cc1ccc(OCC(=O)NCCNC(=O)c2ccco2)cc1,32.9 µg/mL
5,CCOc1ccccc1NC(=O)C(C)SCc1ccccc1 (stereo not drawn),1.4 µg/mL
6,CCOC(=O)c1c(CC(C)C)csc1/N=C/C1=C(O)CCCC1=O,2.3 µg/mL
7,O=C(Cc1ccccc1)N/N=C/c1cccnc1,> 35.9 µg/mL
8,COc1ccc2[nH]cc(CCNCc3cccnc3)c2c1.Cl,46.2 µg/mL
9,COc1ccc(/C=C/C(=O)c2c(C)cc(C)[nH]c2=O)c2ccccc12,15.7 µg/mL
10,CC1(c2ccccc2)NC(=O)N(CC#N)C1=O (stereo not drawn),34.3 µg/mL
11,CCOC(=O)CNC(=O)C1c2ccccc2Oc2ccccc21,1.9 µg/mL
12,COc1ccccc1N1CCN(/N=C/c2ccccc2C(=O)O)CC1,> 50.9 µg/mL
13,COc1ccc(C(=O)NCCCNC(=O)c2cc3ccccc3[nH]2)cc1OC,> 57.2 µg/mL
14,O=C(CCNc1ccc(Cc2ccncc2)cc1)c1ccc([N+](=O)[O-])cc1,11.6 µg/mL
15,Cl.O=S(=O)(N1CCCCCC1)N1CCNCC1,> 42.6 µg/mL
16,C=CCNC(=S)N1CCC(C(N)=O)CC1,> 34.1 µg/mL
17,CC1(NC(=O)Cc2c(F)cccc2Cl)CCS(=O)(=O)C1 (stereo not drawn),> 48 µg/mL
18,Cc1cc(C(=O)OCC(=O)N(C)c2ccccc2)ccc1[N+](=O)[O-],42.1 µg/mL
19,Cc1cc(N)ccc1-c1cc2ccccc2oc1=O,25.8 µg/mL
20,Cc1ccnc(NCc2cccc3ccccc23)c1.Cl,15.8 µg/mL
21,O=C(O)COc1ccc(/C=N/O)cc1Br,41 µg/mL
22,COC(=O)c1cn(CC(=O)Nc2ccc(F)cc2)c2ccccc12,< 0.3 µg/mL
23,CC1CC(Nc2ccccc2)c2ccccc2N1C(=O)c1ccncc1 (stereo not drawn),25.9 µg/mL
24,CC(=O)N(C)c1ccc(NS(=O)(=O)c2cccc3nsnc23)cc1,> 54.4 µg/mL
25,COCc1nnc(NC(=O)c2cc3ccccc3o2)s1,> 43.4 µg/mL

row,SMILES,solubility kinetic
1,Cc1nc(C(N)=O)c(N)n1CCc1ccccc1,35.7 µg/mL
2,CCc1nonc1NC(=O)COc1cc(C)c(Cl)c(C)c1,0.3 µg/mL
3,COc1ccccc1Nc1ncccc1[N+](=O)[O-],1.2 µg/mL
4,CCCCC(=O)Nc1ccc(NC(=O)c2ccco2)cn1,36.9 µg/mL
5,CCOC(=O)c1ccc(N=Cc2c(O)c3ccccc3oc2=O)cc1,4.7 µg/mL
6,CC1CCCN(c2c3c(nc4ccccc24)CCCC3)C1 (stereo not drawn),0.6 µg/mL
7,CCSc1nnc(SCC(=O)NC2CCCCC2)s1,> 47.6 µg/mL
8,Nc1ccccc1N=c1ssnc1Cl,> 36.6 µg/mL
9,Clc1ccccc1Cc1noc(CN2CCN3CCCC3C2)n1 (stereo not drawn),> 49.9 µg/mL
10,O=C(COC(=O)c1cc(S(=O)(=O)N2CCOCC2)ccc1F)Nc1cc([N+](=O)[O-])ccc1F,7.4 µg/mL
11,CC1(C)CC(=O)C2=C(C1)NC(=O)NC2c1ccc(Cl)cc1 (stereo not drawn),6.9 µg/mL
12,O=C(Oc1c(-c2ccccc2)c(=O)n2c3c(cccc13)CC2)c1ccc(Cl)cc1,< 0.9 µg/mL
13,O=[N+]([O-])c1ccc(SCc2c(F)cccc2Cl)nc1,< 0.3 µg/mL
14,Cl.Clc1cccc2c3c([nH]c12)CCNC3,25.8 µg/mL
15,O=C(O)CCc1ccc(-c2ccccc2)n1-c1cccc(C(=O)O)c1,> 50.3 µg/mL
16,O=C1CCCN1CN(C(=O)c1ccccc1)c1ccccc1,> 44.2 µg/mL
17,Cc1cnc(C(=O)OCC(=O)Nc2cc(Cl)ccc2C#N)cn1,> 49.6 µg/mL
18,O=C(/C=C/c1ccc(F)cc1)NC(=S)NC1CCCCC1,0.5 µg/mL
19,NC(=S)c1cc2cc(Br)ccc2oc1=O,< 0.6 µg/mL
20,c1ccc(CCNCC2COc3ccccc3O2)cc1 (stereo not drawn),> 40.4 µg/mL
21,O=C(c1cncc(Br)c1)N1CCN(S(=O)(=O)c2ccc3ccccc3c2)CC1,6.5 µg/mL
22,COc1ccc(CCC(=O)NC2CCCc3ccccc32)cc1OC (stereo not drawn),47.5 µg/mL
23,O=C(CN1CCCCCC1)Nc1cccc([N+](=O)[O-])c1,> 41.6 µg/mL
24,Cc1cccc(Nc2nc(-c3ccc(F)cc3)cs2)n1,< 0.2 µg/mL
25,COc1ccc(CCNC(=O)c2ccco2)cc1OC,40.8 µg/mL

row,SMILES,solubility kinetic
1,O=C(NCc1ccc(Cl)cc1)Nc1ccc(F)cc1,1.3 µg/mL
2,O=C(Nc1cccc2ncccc12)c1ccccc1[N+](=O)[O-],36.6 µg/mL
3,Cc1sc2ncnc(NCCCN3CCCC3=O)c2c1C,> 45.7 µg/mL
4,O=C(NC1CCN(S(=O)(=O)c2ccccc2)CC1)c1ccccc1,< 0.4 µg/mL
5,Cc1cc(NC(=O)C(Cl)(Cl)Cl)no1,35.7 µg/mL
6,CCN(C(=O)CSc1nnc(C)c(=O)[nH]1)c1cccc2ccccc12,> 53.2 µg/mL
7,CC1(C)OC(=O)N(CCC(=O)Nc2cccc(F)c2)C1(C)O (stereo not drawn),> 46.5 µg/mL
8,CCN(Cc1ccncc1)C(=O)c1ccc2c(c1)S(=O)(=O)c1ccccc1C2=O,42 µg/mL
9,CN1CCCN(S(=O)(=O)c2cccc(C#N)c2)CC1.Cl,> 47.4 µg/mL
10,NC(=O)C1CCCN(C(=O)CNC(=O)C23CC4CC(CC(C4)C2)C3)C1 (stereo not drawn),38.3 µg/mL
11,Cc1csc(=O)n1CCC(=O)NCc1ccc(F)cc1,> 44.2 µg/mL
12,O=C(CN1CCOCC1)Nc1c(Cl)cc(Cl)cc1Cl,> 48.5 µg/mL
13,COCCCNCC(O)C(F)(F)F (stereo not drawn),24.4 µg/mL
14,O=C(COC(=O)CNC(=O)c1ccccc1)NC(=O)NC1CCCCC1,> 54.2 µg/mL
15,CC(C)C(NC(=O)C1CCCCC1)C(=O)NCCc1ccccc1 (stereo not drawn),1.3 µg/mL
16,CCc1cccc2c1NC1(CCCC1)CC2C.Cl (stereo not drawn),< 0.6 µg/mL
17,COc1nc(NC(=O)c2ccc(F)cc2)nc(OC)c1-c1ccccc1,6 µg/mL
18,O=C(Oc1ccccc1)N1CCCC1,24.8 µg/mL
19,O=C(O)/C=C/C(=O)NCCc1ccc(Cl)cc1,> 38.1 µg/mL
20,Cc1ccsc1C(=O)OCC(=O)NC1CCCCC1C (stereo not drawn),12 µg/mL
21,CC(Sc1nc2ccccc2[nH]1)C(=O)NC1CCCCC1C (stereo not drawn),14.5 µg/mL
22,CC(C)CC(=O)N1CCN(Cc2ccccc2Cl)CC1,30.7 µg/mL
23,O=S(=O)(Nc1ccc(Nc2ccccc2)cc1)c1ccc(F)cc1,3.5 µg/mL
24,N#CC(C#N)=C1C(=O)N(CCN2CCOCC2)c2ccccc21,> 46.3 µg/mL
25,CC(OC(=O)c1ccco1)C(=O)NCc1ccc2c(c1)OCO2 (stereo not drawn),> 47.6 µg/mL

row,SMILES,solubility kinetic
1,CC(C)NC(=O)N1c2ccccc2Sc2ccccc21,33.4 µg/mL
2,CC(C)(C)CC(=O)Nc1ccc(-c2cn3cccnc3n2)cc1,40.3 µg/mL
3,O=C(COc1cccc2cccnc12)NCc1cccs1,37.6 µg/mL
4,CCOC(=O)c1c(C)nsc1NC(=O)c1ccco1,1.6 µg/mL
5,CCOc1cccc(OCCCCn2cnc3ccccc3c2=O)c1,3.4 µg/mL
6,N#C/C(=C\c1ccc(F)c(Cl)c1)S(=O)(=O)c1ccccn1,44 µg/mL
7,CN(C(=O)COC(=O)c1cc2ccccc2cc1O)c1ccccc1,3.4 µg/mL
8,COc1cc(OC)c(C2C(C#N)=C(C)NC(C)=C2C#N)c(C(=O)O)c1,> 50.9 µg/mL
9,CCOc1ccccc1-n1cnc(C#N)c1N,> 34.2 µg/mL
10,C1=C(c2ccccc2)CCNC1.Cl,24.9 µg/mL
11,Cc1ccc(O)c(NC(=O)c2cc(C)no2)c1,> 34.8 µg/mL
12,S=c1nc(Cc2ccccc2)[nH]c2ccccc12,2.4 µg/mL
13,COc1ccc(C(=O)Cn2cnc3ccccc3c2=O)cc1,31 µg/mL
14,O=C(O)CCCC(=O)Nc1ccc(Oc2cccc(C(F)(F)F)c2)nc1,> 55.2 µg/mL
15,CCCCNC(=O)Nc1nc2ccc(CC)cc2s1,0.7 µg/mL
16,Cc1cccc(C)c1NC(=S)N1CC(C)OC(C)C1 (stereo not drawn),> 41.8 µg/mL
17,O=C(NCc1ccc2c(c1)OCO2)NC12CC3CC(CC(C3)C1)C2,1.3 µg/mL
18,Cc1ccccc1/C=C1\C(=O)Nc2ccc(F)cc21,0.9 µg/mL
19,CSc1ncccc1C(=O)Nc1ccncc1,34.6 µg/mL
20,O=[N+]([O-])c1ccc(COc2cccc3cccnc23)cc1,2.4 µg/mL
21,Nc1nc(-c2nonc2N)no1,> 25.2 µg/mL
22,C=CCC(=O)N1CCCC(CCC(=O)NCc2ccccc2F)C1 (stereo not drawn),> 49.9 µg/mL
23,CC(C)CCNC(=O)C(=O)Nc1cc2c3c(c1)CC(=O)N3CCC2,28.5 µg/mL
